Data on two substances can be found in patent US12624068B2, “Exon skipping by peptide nucleic acid derivatives” (OliPass Corporation, priority 2016, dated 2026).

[C(1O2)] = modified PNA monomer acting as cytosine, C(pOq) type, 1O2; [A(5)] = modified PNA monomer acting as adenine, A(p) type, p=5; [G(6)] = modified PNA monomer acting as guanine, G(p) type, p=6; {Fethoc} = N-terminal Fethoc cap; {NH2} = C-terminal amide Some results are limits rather than exact numbers.

The subject of one series is full-length dystrophin. In words: IHC of skeletal muscles against full-length dystrophin in mdx mice. Type of series: in vivo. From the text: [IHC Evaluation of Skeletal Muscles against Full-length Dystrophin] In Weeks 7, 13 and 21, two animals per group were randomly selected and sacrificed to extract muscle tissues. In Week 30, 3 animals were sacrificed per group.
The muscle tissues sampled in Week 7 were subjected to IHC against the full-length dystrophin by cryosection. The muscle tissues sampled in Weeks 13, 21 and 30 were immunostained by paraffin block. IHC by paraffin block yielded images of better quality than IHC by cryosection.
Muscle samples were subjected to immunostaining in series with a primary antibody targeting the C-terminal of mouse dystrophin (Cat. Number sc-816, Santa Cruz) at 1:100 dilution, with a secondary anti-IgG antibody (Cat Number BA-1100, Vector) at 1:200 dilution, and then with Dylight 594-streptavidin (Cat Number SA-5594, Vector, CA, USA) at 1:200 dilution for red fluorescence tagging. The IHC images were captured on a Zeiss slide scanner (in Weeks 13, 21 and 30) or an Olympus fluorescence microscope (in Week 7). […]
The dystrophin IHC images were subjected to quantification for the full-length dystrophin expression by digitally scoring the intensity of red fluorescence in each individual IHC image using the “ImageJ” program (NIH). Individual fluorescence scores were combined by group and muscle type for statistical evaluation against the wild type negative control group.

For another series, the system named is serum myoglobin. In words: Serum myoglobin level in mdx mice. To be noted: DMD-ASO 1 50 pmole/Kg, DMD-ASO 2 or DMD-ASO 6 10 pmole/Kg, 2× per week, Week 66. The class given is in vivo. The method, then:
[Terminal Sacrifice] In Week 48, the animals were subjected to terminal sacrifice for blood sampling. The blood samples were analyzed for the serum level of CK (Creatine Kinase Activity Assay Kit, Cat. Number ab155901, Abcam) and myoglobin (Myoglobin ELISA Kit, Cat. Number ab210965, Abcam) to assess the degree of muscle degradation according to the manufacturer's instructions. Muscle tissues were analyzed by western blot for the full-length dystrophin.
[Terminal Sacrifice] All the survived animals were sacrificed for blood sampling in Week 66 post the grouping. The blood samples were subjected to ELISA assays for serum creatine kinase (CK) and serum myoglobin as described in “DMD Example 6”.

The subject of series [1] is sodium current in PC3 cells. Kind of series: CoroNa assay of sodium current in PC3 cells. Type of series: cell-based, human. As to conditions: 30 hours. The method, then: Cellular sodium current is measured by patch clamp. As sodium ions enter cell, the intra-cellular sodium ion level increases. The intra-cellular sodium level can be probed using a sodium ion sensitive dye. “CoroNa Green” is a dye with a sodium ion chelator of crown ether type. Upon chelation with a sodium ion, “CoroNa Green” emits green fluorescence. “CoroNa Green” has been used to indirectly measure the intra-cellular sodium level. […] [Proc. Natl. Acad. Sci. USA vol 106(38), 16145-16150 (2009)]
PC3 cells are known to abundantly express the human SCN9A mRNA, although there are other SCN subtypes concomitantly expressed. [Br J. Pharmacol. vol 156, 420-431 (2009)] Thus an inhibition of SCN9A mRNA expression may lead to a considerable reduction of the sodium current in PC3 cells, if the sodium ion current by the Nav1.7 sodium channel subtype occupies a marked portion of the total sodium ion current in PC3 cells. It is note that the SCN9A mRNA encodes the Nav1.7 sodium channel subtype.
“SCN-ASO 7” was evaluated for its ability to inhibit the sodium ion current in PC3 cells using “CoroNa Green” as follows.
[ASO Treatment] PC3 cells grown in 35 mm culture dish containing 2 mL F-12K medium were treated with “SCN-ASO 7” at 0 zM (negative control), 100 zM or 1 aM.
[CoroNa Assay] 30 hours later, the cells were washed with 2 mL HBSS (Hank's Balanced Salt Solution, Cat. Number 14025-092, Life Technologies), and then charged with 2 mL fresh HBSS. Then the cells were treated with 5 μM “CoroNa Green” (Cat. Number C36676, Life Technologies) at 37° C. 30 min later, the cells were washed 2× with 2 mL HBSS, and charged with 2 mL fresh HBSS. The culture dish was mounted on an Olympus fluorescence microscope equipped with a digital video camera to continuously capture the green fluorescence images of the cells. The cells were acutely treated with 100 mM NaCl, and then the changes in fluorescence cellular images were digitally recorded over a period of 3 min. There were about 4 cells per frame on average. The fluorescence intensities from each individual cell were traced at the resolution of a second. The traces of the intracellular fluorescence intensities from individual cells were overlaid and averaged at each time point. The average of the traces from the individual cells of each ASO concentration were plotted as provided in FIG. 30A using ImageJ program (version 1.50i, NIH). The average fluorescence intensity trace was taken as the individual intra-cellular sodium concentration trace for the cells treated with “SCN-ASO 7” at 0 (negative control), 100 or 1,000 zM.
“SCN-ASO 3” was evaluated for its ability to inhibit the sodium current in PC3 cells using “CoroNa Green” according to the protocol described in “SCN9A Example 5”, unless noted otherwise.
“SCN-ASO 8” was evaluated for its ability to inhibit the sodium current in PC3 cells using “CoroNa Green” according to the protocol described in “SCN9A Example 3”, unless noted otherwise.

For the next series, the system named is SCN9A mRNA. Kind of series: SCN9A nested qPCR by SYBR Green in PC3 cells. The class given is cell-based, human. To be noted: 24 hours. The method, then:
“SCN-ASO 7” was evaluated for its ability to inhibit the expression of the human SCN9A mRNA in PC3 cells by qPCR against a set of exon-specific primers as follows. [Cell Culture & ASO Treatment] PC3 cells grown in 60 mm culture dish containing 5 mL culture medium were incubated with “SCN-ASO 7” for 24 hours at 0 (negative control), 10, 100 or 1,000 zM. (2 culture dishes per concentration) [RNA Extraction] […] [cDNA Synthesis by One Step RT-PCR] […] NO: 78); and SCN-exon 9_reverse: (5'→3') […] NO: 79)]. […] [Nested qPCR Amplification] […] NO: 80); SCN-exon 4_reverse: (5'→3') […] NO: 81); SCN-exon 5_forward: (5'→3') […] NO: 82); SCN-exon 5_reverse: (5'→3') […] NO: 83); SCN-exon 6_forward: (5'→3') […] NO: 84); SCN-exon 6_reverse: (5'→3') […] NO: 85)]. The PCR reactions were probed with SYBR Green (Takara, Japan). […] “SCN-ASO 3” was evaluated for its ability to inhibit the expression of the full-length SCN9A mRNA in PC3 cells according to the protocol described in “SCN9A Example 2”, unless noted otherwise. “SCN-ASO 8” was evaluated for its ability to inhibit the expression of the full-length SCN9A mRNA in PC3 cells according to the protocol described in “SCN9A Example 2”, unless noted otherwise.
In general terms: Real-time PCR tracks product formation cycle by cycle.

On to “Fethoc-A(5)GA-G(6)CC(1O2)-TCA-A(5)AA(5)-T-NH2 (antisense AGAGCCTCAAAAT; Fethoc N-cap, C-terminal amide, chemistry not fully specified) [DMD-ASO 1]”, for which the “in vivo potency relative to the PMO ASO eteplirsen (30 mg/Kg per week)” value in the series on full-length dystrophin (200 pmole/Kg corresponds to ca 1 μg/Kg, different species and exon) is ~30,000 times. In addition, the “full-length dystrophin expression relative to the WT negative control group (IHC)” value with full-length dystrophin (mdx mice, 200 pmole/Kg 2× per week, Week 30) is recorded as greater than 80%. Moreover, in the series with serum myoglobin, the “serum myoglobin level smaller than the mdx negative control group by” value was found to be 43%.
“Fethoc-AC(1O2)T-TA(5)C-G(6)CA-A(5)AA(5)-AC(1O2)A-A(5)-NH2 (ACTTACGCAAAAACAA; all peptide nucleic acid (PNA), [C(1O2)] at 2, 14, [A(5)] at 5, 10, 12, 16, [G(6)] at 7, 5' {Fethoc}, 3' {NH2}; peptide nucleic acid written N to C) [SCN-ASO 7]”: the “decrease of sodium current (CoroNa)” value in series [1] (PC3 cells, 100 zM) is “no notable decrease”. In series [1] (PC3 cells, 1,000 zM), the “decrease of sodium current / sodium channel activity (CoroNa)” value is recorded as 37%. For the same substance, the “average cellular fluorescence intensity (CoroNa Green)” value in series [1] (PC3 cells, 1,000 zM, at 100 sec after 100 mM NaCl) amounted to 51.47 arbitrary unit. Also, the “decrease of expression levels of SCN9A exons 4-6 (SYBR Green)” value is given as roughly 70% in the series on SCN9A mRNA (PC3 cells, 10 zM); 40% in the series with SCN9A mRNA (PC3 cells, 100 zM); 20-30% in the series with SCN9A mRNA (PC3 cells, 1,000 zM).
